In publication PMC3706558 (Biochemistry, 2013):

What was measured:
[1] = target: T1, Mtb ICDH-1 (Mycobacterium tuberculosis, UniProt P9WKL1); assay: NADPH formation at […] nm, dead-end inhibition; format: biochemical
[2] = target: T1, Mtb ICDH-1; assay: biochemical
[3] = test system: NC(=O)c1ccc[n+]([C@@H]2O[C@H](COP(=O)(O)OP(=O)(O)OC[C@H]3O[C@@H](n4cnc5c(N)ncnc54)[C@H](OP(=O)(O)O)[C@@H]3O)[C@@H](O)[C@H]2O)c1; assay: purified protein; conditions: pH 7.5

T1 sequence (P9WKL1 whole entry): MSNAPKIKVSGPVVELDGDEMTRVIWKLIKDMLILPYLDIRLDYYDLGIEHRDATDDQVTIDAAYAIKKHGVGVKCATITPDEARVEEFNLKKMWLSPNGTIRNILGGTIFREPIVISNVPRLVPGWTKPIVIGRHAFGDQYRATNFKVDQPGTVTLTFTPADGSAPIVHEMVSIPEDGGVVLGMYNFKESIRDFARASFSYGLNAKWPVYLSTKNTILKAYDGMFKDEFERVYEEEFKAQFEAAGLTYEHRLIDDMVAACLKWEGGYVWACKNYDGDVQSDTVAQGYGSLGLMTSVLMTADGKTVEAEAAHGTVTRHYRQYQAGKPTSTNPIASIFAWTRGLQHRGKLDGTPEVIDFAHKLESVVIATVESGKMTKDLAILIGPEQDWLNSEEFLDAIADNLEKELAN

Compound | Ki [2] [mM] | other results
O=C(O)C[C@H](O)C(=O)O [malate] | – | Ki [1]: 80 ± 15 mM
NC(=O)C1=CN([C@@H]2O[C@H](COP(=O)(O)OP(=O)(O)OC[C@H]3O[C@@H](n4cnc5c(N)ncnc54)[C@H](OP(=O)(O)O)[C@@H]3O)[C@@H](O)[C@H]2O)C=CC1 [NADPH] | 0.006 ± 0.002 | –
Mtb ICDH-1 (Mycobacterium tuberculosis H37Rv) | – | Km [3]: 15 ± 3 µM
O=C(O)CCC(=O)C(=O)O [αKG] | 22 ± 6 | –
